Patent US11104805B2, “High-saturation scarlet color dye ink for high-speed inkjet process” (KOREA INSTITUE OF INDUSTRIAL TECHNOLOGY, priority 2018, dated 2021)
Entries after “also recorded” stand apart in the source; their conditions may differ.

What was measured:
Water solubility of dyes = type: physicochemical
[1] = UV-Vis absorption spectra of dyes in water; type: physicochemical; details: 10^−5 M in water
From the text: The UV-Vis absorption spectra of the dyes 1b to 3b measured at 10^−5 M in water are illustrated in FIG. 2, and corresponding data are shown in Table 1 below. […] When the water solubility of the dye increases, the probability of being present as a single molecule increases, and thus the color developability of each dye molecule is increased, resulting in increased color intensity.
In addition, an absorption peak form having two absorption maxima appeared. This is because a single molecule and aggregated molecules have different absorption maxima. Generally, as the concentration becomes lower, the probability of being present as a single molecule increases, and as the concentration increases, the tendency to aggregate becomes stronger, and thus one peak appears at each maximum, but it was confirmed from this experiment that since the two cases were present at a measurement concentration of 10 μM, absorption peaks appeared separately.

[2] = Thermal stability by TGA under N2 atmosphere; type: physicochemical
From the text: The thermal stability of each sample was investigated by a TGA method under an N2 atmosphere.

[3] = Light stability: relative absorbance over time under light irradiation
Experimental: An absorbance value before light irradiation was set to 1 and relative absorbance values over time were measured.

Structure (SMILES) | water solubility compared with the synthesized perylene dyes (1b to 3b) (Water solubility of dyes; comparison in words) | εmax ([1]; at first (or only) absorption maximum) | λmax (nm) (after 1,200 min) ([1]; first (or only) absorption maximum) | Td (degradation temperature) [2] | shift of absorption maxima after final light irradiation ([3]; 1,200 minutes) | relative absorbance after final light irradiation ([3]; 1,200 minutes, absorbance before irradiation set to 1) | λmax (nm) (after 1200 min) ([3]; after 1200 min light irradiation, first (or only) maximum) | λmax (nm) ([3]; before light irradiation, first (or only) maximum) | K (photodegradation rate constant) ([3]; light irradiation) | water solubility (Water solubility of dyes; in water)
O=S(=O)([O-])c1ccc2c(N=Nc3ccc(S(=O)(=O)[O-])c4ccccc34)c(O)c(S(=O)(=O)[O-])cc2c1.[Na+].[Na+].[Na+] [Acid red 27] | poorer water solubility; also recorded: deteriorated solubility | 23000 L/mol/cm | 521 nm | 291 °C | about 4 nm | about 0.5 | (→ 506) nm | 502 nm | 0.0004945 min⁻¹ | 
O=C1c2ccc3c4c(S(=O)(=O)O)cc5c6c(ccc(c7c(S(=O)(=O)O)cc(c2c37)C(=O)N1c1ccc(S(=O)(=O)O)cc1)c64)C(=O)N(c1ccc(S(=O)(=O)O)cc1)C5=O [Dye 3b, N,N′-bis[4-(sulfuric acid)phenyl]-1,7-(disulfuric acid)perylene-3,4,9,10-tetra carboxydiimide] |  |  |  |  |  |  |  |  |  | ≥ 20 wt %
